In patent publication US11331299B2, “Medicinal use of serrulatane diterpenes” (The University of Sydney, priority 2016, dated 2022):
Where two headings read alike, the source gives them in different places.

Tested on: 280 human cancer cell lines
Experiment: OncoPanel cell proliferation assay (10-day)
Type: cell-based
Settings: Homo sapiens; for IC50: read-out: Cell Count IC50; for EC50: read-out: Cell Count EC50; for GI50: read-out: Cell Count GI50
[1] = SJRH30, SJRH30, Soft Tissue - Sarcoma
[2] = SJSA-1, SJSA1, Soft Tissue - Osteosarcoma
[3] = SK-LMS-1, SK-LMS-1, Soft Tissue - Sarcoma
[4] = SK-MEL3, SK-MEL-3, Skin (Melanoma)
[5] = SK-MEL-1, SK-MEL-1, Skin (Melanoma)
[6] = SK-MEL-28, SK-MEL-28, Skin (Melanoma)
[7] = SK-OV-3, SKOV3, Female GU - Ovary
[8] = SK-UT-1, SK-UT-1, Soft Tissue - Sarcoma
[9] = SW579, SW579, Endocrine - Thyroid
[10] = SW684, SW684, Soft Tissue - Sarcoma

## CC(C)=CCC[C@@H]1C(O)Oc2c(C)cc(O)c3c2[C@H]1CC[C@H]3C (some centres unmarked) [Compound 2, 5,18-epoxyserrulat-14-en-8,18-diol]
SCaBER, Bladder
  IC50: 11.5 µM
SH-4, Skin (Melanoma)
  EC50: 9.6 µM
  GI50: 11.8 µM
  IC50: 11.9 µM
SHP77, SHP-77, Lung - SCLC
  EC50: 8.01 µM
  GI50: 7.9 µM
  IC50: 8.01 µM
[1]
  EC50: 5.09 µM
  GI50: 5.07 µM
  IC50: 5.1 µM
[2]
  EC50: 7.11 µM
  GI50: 7.02 µM
  IC50: 7.11 µM
SK-BR-3, SK-BR-3, Breast
  EC50: 12.2 µM
  GI50: 11.9 µM
  IC50: 12.2 µM
[3]
  EC50: 6.79 µM
  GI50: 11.2 µM
  IC50: 11.3 µM
[4]
  EC50: 22 µM
  GI50: 20.8 µM
[5]
  EC50: 15.7 µM
  GI50: 14.7 µM
  IC50: 15.7 µM
[6]
  EC50: 9.46 µM
  GI50: 9.85 µM
  IC50: 9.89 µM
SK-MES-1, SKMES1, Lung - NSCLC
  EC50: 7.8 µM
  GI50: 7.67 µM
  IC50: 7.8 µM
SK-N-AS, CNS - Neuroblastoma
  EC50: 6.23 µM
  GI50: 7.7 µM
  IC50: 7.92 µM
SK-N-DZ, CNS - Neuroblastoma
  EC50: > 30 µM
  GI50: > 30 µM
  IC50: > 30 µM
SK-N-FI, CNS - Neuroblastoma
  EC50: > 30 µM
  GI50: > 30 µM
  IC50: > 30 µM
[7]
  EC50: 15.4 µM
  GI50: 15.2 µM
  IC50: 15.4 µM
SK-PN-DW, Stomach
  EC50: 10.8 µM
  GI50: 10.9 µM
  IC50: 10.9 µM
[8]
  EC50: 11.7 µM
  GI50: 11.6 µM
  IC50: 11.7 µM
SKO-007, SKO-007, Myeloma
  EC50: 1.59 µM
  GI50: 1.42 µM
  IC50: 1.59 µM
SNB-19, SNB-19, CNS - Glioma
  EC50: 17.3 µM
  GI50: 16.8 µM
  IC50: 17.3 µM
SNU1, SNU-1, Stomach
  EC50: 8.51 µM
  GI50: 9.41 µM
  IC50: 9.42 µM
SNU-5, SNU-5, Stomach
  EC50: > 30 µM
  GI50: > 30 µM
  IC50: > 30 µM
SNU-16, SNU-16, Stomach
  EC50: 9.96 µM
  GI50: 9.91 µM
  IC50: 9.96 µM
SNU-423, SNU-423, Liver
  EC50: 5.29 µM
  GI50: 5.26 µM
  IC50: 5.31 µM
SR, Lymphoma
  EC50: 10.7 µM
  GI50: 10.7 µM
  IC50: 10.7 µM
ST486, ST486, Lymphoma
  EC50: 3.87 µM
  GI50: 3.86 µM
  IC50: 3.87 µM
SU-DHL10, SU-DHL-10, Lymphoma
  EC50: 9.92 µM
  GI50: 9.9 µM
  IC50: 9.92 µM
SU-DHL-4, SU-DHL-4, Lymphoma
  EC50: 4.2 µM
  GI50: 4.2 µM
  IC50: 4.2 µM
SU-DHL-5, SU-DHL-5, Lymphoma
  EC50: 4.28 µM
  GI50: 4.27 µM
  IC50: 4.28 µM
SU-DHL-8, SU-DHL-8, Lymphoma
  EC50: 7.4 µM
  GI50: 7.4 µM
  IC50: 7.4 µM
SU.86.86, SU.86.86, Pancreas
  EC50: 13.1 µM
  GI50: > 30 µM
  IC50: > 30 µM
SUP-T1, SUP-T1, Lymphoma
  EC50: 12.1 µM
  GI50: 12 µM
  IC50: 12.1 µM
SW48, SW48, Colon
  EC50: 8.73 µM
  GI50: 8.65 µM
  IC50: 8.73 µM
[9]
  EC50: 12.3 µM
  GI50: 12.2 µM
  IC50: 12.3 µM
[10]
  EC50: > 30 µM
  GI50: > 30 µM
  IC50: > 30 µM
SW837, SW837, Colon
  EC50: > 30 µM
  GI50: > 30 µM
